# Assay results from patent US20050137222A1, “Treatment of insomnia in human patients” (H. Lundbeck A/S, priority 2003, published 2005).
# Assays:
# [1] = system: healthy subjects exposed to a phase advance model; experiment: Phase advance model in healthy subjects (PSG and subjective recording); assay type: in vivo, human
# Method: (§1) Effect is confirmed for short-term treatment in studies using acute treatment in healthy subjects exposed to a phase advance model. Assessment of effect on insomnia during intermediate term treatment duration is performed in primary insomnia subjects using treatment duration up to 4 weeks. Long term or chronic treatment is assessed in 12 month safety studies. Subject populations include primary insomnia subjects with age range 18-65 yrs (adults) and 65 and above (elderly).
# (§2) Sleep maintenance is measured by either of parameters wakefulness after sleep onset, number of awakenings after sleep onset or total sleep time. […] In these studies, the effect was also confirmed by the subjects own feelings of the sleep initiation. Based both on PSG and on subjective diary recording, gaboxadol doses of 5 to 15 mg are highly preferred to achieve effect in adults and elderly (gaboxadol was administered from ½ hour before bedtime up to immediately before going to bed).
# [2] = system: adult (18-65 yrs) primary insomnia subjects; experiment: 3 week placebo controlled parallel group outpatient study of daytime performance (VAS, Sheehan disability scale); assay type: in vivo, human; conditions: doses 5, 10 and 15 mg, about ½ hour before bedtime; 3 weeks; effect more pronounced during week 2 and 3
# Method: The daytime performance (used interchangeably with daytime function) in adult (18-65 yrs) primary insomnia subjects (Diagnostic and Statistical Manual of Mental Disorders—Fourth Edition, […]) has been assessed in a 3 week placebo controlled parallel group, outpatient study. The performance was measured with standardized questions using a 100 point Visual Analogue Scale (VAS). The questions asked for subjects to report on their daytime ability to function, tiredness, energy and relaxedness. Subject responses were recorded in a diary in the evening on the day after each treatment night (gaboxadol was administered about ½ hour before bedtime). Moreover, daytime function was recorded once weekly using the Sheehan disability scale (Sheehan et al., 1996, “The measurement of disability,” International Clinical Psychopharmacology 11 (suppl. 3), 89-95).
# [3] = system: healthy human subjects; conditions: cited from earlier work
# [4] = system: animals; conditions: cited from earlier work
# [5] = system: adult subjects with primary insomnia; experiment: Polysomnograph (PSG) study in adult subjects with primary insomnia; assay type: in vivo, human
# Method: as §1, §2
# [6] = system: human subjects; experiment: EEG slow wave sleep and spectral analysis in the clinical studies; assay type: in vivo; conditions: similar effect range as for slow wave sleep
# Source text: Moreover, gaboxadol induced a dose-dependent increase in duration of slow wave sleep (SWS), that is, stages 3 and 4, which is considered the deepest stage of sleep. The effect ranged between +15 and 46% compared to placebo.
structure (smiles),measurement,setting,value
"Oc1noc2c1CCNC2 [gaboxadol, 4,5,6,7-tetrahydroisoxazolo(5,4-c)pyridin-3-ol]","sleep maintenance as measured by polysomnograph (wakefulness after sleep onset, number of awakenings after sleep onset or total sleep time)","[1]; healthy subjects, phase advance model",improves sleep maintenance
same,subjects' own perception of the sleep maintenance effect,"[1]; healthy subjects, phase advance model, subjective",decreased wakefulness
same,lowest dose at which the sleep maintenance effect was observed,"[1]; oral, study not clearly specified in the text",about 5 mg per day
same,sleep initiation,"[1]; subjects in a phase advance model, confirmed by subjects' own feelings",facilitated sleep initiation
same,daytime performance (weekly means of VAS questions and Sheehan disability scale),[2],significantly improve daytime performance
same,deep sleep,[3],promote deep sleep
same,influence on REM sleep,[3],no disrupting influence on REM sleep
same,sleep maintenance,[3],increase sleep maintenance
same,nonREMS amount and nonREMS/REMS episode duration,[4],increasing total amount of nonREMS and lengthening the duration of the nonREMS and REMS episodes
same,"sleep maintenance as measured by polysomnograph (wakefulness after sleep onset, number of awakenings after sleep onset or total sleep time)","[5]; adult subjects with primary insomnia, oral, from ½ hour before bedtime up to bedtime",improves sleep maintenance
same,sleep initiation,"[5]; primary insomnia subjects, confirmed by subjects' own feelings",facilitated sleep initiation
same,slow wave activity in EEG spectral analysis,[6],increase of slow wave activity
